Assay results published in US8822754B2, “Ecdysone receptor-based inducible gene expression system” (Intrexon Corporation, priority 2000, dated 2014).

Experiments:
GAL4EcR + VP16USP = experiment: Transactivation of reporter genes through switch 1.2 in 3T3 cells; format: cell-based, Choristoneura fumiferana; conditions: switch 1.2 GAL4EcR + VP16USP, pGAL4RELuc
Method: This construct was prepared in the same way as in switch 1.1 above except MmRXRDEF was replaced with the D, E and F domains from spruce budworm USP (“CfUSPDEF”; SEQ ID NO: 58). The constructs used in this example are similar to those disclosed in U.S. Pat. No. 5,880,333 except that Choristoneura fumiferana USP rather than Drosophila melanogaster USP was utilized.
The cells were plated when they reached 50% confluency.
Cells were harvested 24-48 hr after adding ligands. […] Twenty μl of lysate was assayed.

GAL4RXR + VP16CfEcR = experiment: Transactivation of reporter genes through switch 1.3 in 3T3 cells
Excerpt: In various cellular backgrounds, including mammalian cells, insect ecdysone receptor (EcR) heterodimerizes with retinoid X receptor (RXR) and, upon binding of ligand, transactivates genes under the control of ecdysone response elements. Applicants constructed several EcR-based gene expression cassettes based on the spruce budworm Choristoneura fumiferana EcR (“CfEcR”; full length polynucleotide and amino acid sequences are set forth in SEQ ID NO: 49 and SEQ ID NO: 50, respectively), C. fumiferana ultraspiracle (“CfUSP”; full length polynucleotide and amino acid sequences are set forth in SEQ ID NO: 51 and SEQ ID NO: 52, respectively), and mouse Mus musculus RXRα (MmRXRα; full length polynucleotide and amino acid sequences are set forth in SEQ ID NO: 53 and SEQ ID NO: 54, respectively). The prepared receptor constructs comprise a ligand binding domain of EcR and of RXR or of USP; a DNA binding domain of GAL4 or of EcR; and an activation domain of VP16. The reporter constructs include a reporter gene, luciferase or LacZ, operably linked to a synthetic promoter construct that comprises either GAL4 or EcR/USP binding sites (response elements). Various combinations of these receptor and reporter constructs were cotransfected into CHO, NIH3T3, CV1 and 293 cells. […] Reporter gene expression activities were assayed at 24 hr or 48 hr after ligand addition.
MmRXRDEF (SEQ ID NO: 22) was fused to a GAL4DNABD (SEQ ID NO: 41) and CfEcRCDEF (SEQ ID NO: 1) was fused to a VP16AD (SEQ ED NO: 45).
The same procedures described for CHO cells were followed for 3T3 cells as well with two modifications. The cells were plated when they reached 50% confluency. 125,000 or 50,000 or 25,000 cells were plated per well of 6- or 12- or 24-well plates respectively. The GAl4EcR/VP16RXR and reporter vector DNAs were transfected into NIH3T3 cells, the transfected cells were grown in medium containing PonA, MurA, N-(2-ethyl-3-methoxybenzoyl)-N′-(3,5-dimethylbenzoyl)-N′-t-butylhydrazine, or N-(3,4-(1,2-ethylenedioxy)-2-methylbenzoyl)-N′-(3,5-dimethylbenzoyl)-N′-tert-butylhydrazine for 48 hr. The ligand treatments were performed as described in the CHO cell section above.
Cells were harvested 24-48 hr after adding ligands. 125, 250, or 500 μl of passive lysis buffer (part of Dual-luciferase™ reporter assay system from Promega Corporation) were added to each well of 24- or 12- or […] respectively. The plates were placed on a rotary shaker for 15 min. Twenty μl of lysate was assayed. Luciferase activity was measured using Dual-luciferase™ reporter assay system from Promega Corporation following the manufacturer's instructions. β-Galactosidase was measured using Galacto-Star™ assay kit from TROPIX following the manufacturer's instructions. All luciferase and β-galactosidase activities were normalized using Renilla luciferase as a standard. Fold activities were calculated by dividing normalized relative light units (“RLU”) in ligand treated cells with normalized RLU in DMSO treated cells (untreated control).

**Q.** What does the source list for `CCc1c(OC)cccc1C(=O)NN(C(=O)c1cc(C)cc(C)c1)C(C)(C)C` [N-(2-ethyl-3-methoxybenzoyl)-N′-(3,5-dimethylbenzoyl)-N′-tert-butylhydrazine]?
**A.** Mean Fold Activation Through N-(2-ethyl-3-methoxybenzoyl)-N′-(3,5-dimethylbenzoyl)-N′-t-butylhydrazine (GAL4EcR + VP16USP): 2 fold; Mean Fold Induction at 1.0 μM Concentration (GAL4RXR + VP16CfEcR; GAL4MmRXRDEF/VP16CfEcRCDEF (switch 1.3), 1.0 μM ligand): 71 fold; Mean Fold Activation Through N-(2-ethyl-3-methoxybenzoyl)-N′-(3,5-dimethylbenzoyl)-N′-t-butylhydrazine (GAL4RXR + VP16CfEcR; switch 1.3 GAL4RXR + VP16CfEcR, pGAL4RELuc): 47 fold
